Measured values as given in patent publication US8313914B2, “Compositions and methods for modulation of cell migration” (Angstrom Pharmaceuticals, Inc., priority 2009, dated 2012).
“Also recorded” adds a separate entry of the source. No end group written: not given here.

What was measured:
[1] = target: T1, CD44 (Homo sapiens, UniProt P16070); assay: Anti-CD44 (DF1485) immunoblot analysis of Å6CbioXL polypeptides and Å6-BSA; format: binding; conditions: SKOV3 lysates
T1 construct: endogenous in cells; host or cells: SKOV3
T1 sequence (P16070 21-742): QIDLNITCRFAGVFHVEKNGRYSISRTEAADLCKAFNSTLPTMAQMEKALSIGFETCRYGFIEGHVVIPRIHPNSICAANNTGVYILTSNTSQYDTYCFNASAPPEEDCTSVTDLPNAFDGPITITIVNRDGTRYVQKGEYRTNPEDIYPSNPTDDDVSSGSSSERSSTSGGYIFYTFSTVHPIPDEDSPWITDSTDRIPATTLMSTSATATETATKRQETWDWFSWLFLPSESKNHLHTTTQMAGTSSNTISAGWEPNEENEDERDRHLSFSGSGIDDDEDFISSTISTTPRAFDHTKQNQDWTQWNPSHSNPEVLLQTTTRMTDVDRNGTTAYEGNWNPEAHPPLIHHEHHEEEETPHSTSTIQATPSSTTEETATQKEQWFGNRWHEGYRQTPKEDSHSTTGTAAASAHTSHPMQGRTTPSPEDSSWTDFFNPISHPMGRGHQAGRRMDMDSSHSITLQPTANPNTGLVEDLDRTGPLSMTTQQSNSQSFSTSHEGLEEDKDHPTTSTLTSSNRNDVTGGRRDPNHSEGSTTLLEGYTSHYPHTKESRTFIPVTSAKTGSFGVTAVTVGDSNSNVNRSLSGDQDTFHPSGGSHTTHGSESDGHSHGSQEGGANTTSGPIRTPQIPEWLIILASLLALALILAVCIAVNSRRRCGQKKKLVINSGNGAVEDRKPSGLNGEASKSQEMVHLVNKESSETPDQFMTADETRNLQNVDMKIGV
Experimental: In FIG. 7 30 μg aliquots of Å6CbioXL and control (ConXL) SKOV3 lysates, as well as 2 μg aliquots of Å6-crosslinked BSA (Å6-BSA) and BSA, were subjected to immunoblot analysis using the DF1485 anti-CD44 antibody (Santa Cruz Biotech). The DF1485 blots were stained with HRP-conjugated sheep anti-Mouse IgG; heavy and light chain specific (GE Health Sciences). The rabbit anti-Å6 blot was stained with HRP-conjugated donkey anti-rabbit IgG; heavy and light chain specific (Jackson Immunoresearch). Stained bands were visualized by the ECL-plus chemiluminescence reagent (GE Health Sciences) and exposure to Hyperfilm ECL film (GE). In panel 1, anti-CD44 produced bands in the Å6CbioXL (A lane) and control (C) lane. […] In addition, 2 μg aliquots of the Å6CbioXL and ConXL lysates were concurrently blotted with HRP-streptavidin to identify polypeptides labeled with Å6Cbio, and shown in panel 2. 2 μg of Å6-BSA and BSA were also blotted with Rb anti-Å6 to confirm the presence of Å6 on the Å6-BSA, as shown in the third panel of FIG. 7.

[2] = test system: SKOV3 cells; assay: Boyden chamber migration of SKOV3 cells induced by NIH3T3-CM/VEGF; format: cell-based; conditions: for Effective concentration for cell migration inhibition, lower end / Effective concentration for cell migration inhibition, upper end: SKOV3 migration
Experimental: (§1) A2780 (FIG. 10a) and SKOV3 (FIG. 10b) cells were incubated with the indicated concentrations of Å6 peptide for 30 min at 37° C. Aliquots representing 6,000 cells were placed on quadruplicate, CnI-coated filters (8 μm pores) in Boyden chambers and the cells allowed to migrate overnight in response to 10 ng/ml VEGF in NIH3T3-conditioned media containing the indicated concentrations of Å6. Upon completion of migration, the apical surfaces of the membranes were wiped clean and the migrating cells on the basal surface were stained with Geimsa stain and the cells present in representative fields of the membranes counted. Data represent the averages+/−standard deviations obtained from the replicate filters. […] This provides further confirmation that CD44 is the target for the Å6 peptide.
SKOV3 cells are harvested by trypsinization and washed once with RPMI-0.5% BSA. Next, the cells are re-suspended in RPMI+0.5% BSA@6E4/mL (6000 cells/100 μL). The peptide is pre-treated with 500 μL of cells added to 500 μL peptide NASAPPEE (SEQ ID NO: 3) (2× concentration, final conc, at 100, 10, 1, 0.1, 0.01, 0.001 uM) and the mixture incubated 30 minutes at 37° C., under 5% CO2. The Boyden chamber is assembled by: Placing in the bottom chambers: 220 μL of serum/BSA free DMEM or NIH3T3CM+10 ng/ml VEGF or NIH3T3CM+10 ng/ml VEGF+peptide. Place 8 μm filters on the top of the bottom chambers. The 8 μm filters are coated with 1 mg/ml collagen I at 4° C. overnight, washed with PBS twice, air dry before use. Add 200 μL of cells with or without peptide pretreatment to the top of Boyden chamber. Note that the peptide is in both top and bottom chambers. Cells migrate overnight at 37° C., under 5% CO2 in incubator. Next, Boyden chambers are disassembled the and filters collected. The cells on the filters after collection are treated with −20° C. methanol for 3 minutes at room temperature and stained with 30% Geimsa for 7 minutes at room temperature, and washed with water twice. The filters are mounted on slides, air dried and the cells counted.
Cell numbers were obtained by counting the cells in four fields of filters using a 40× objective. The cells migrating into the bottom chambers were also counted as follows: a) 200 μL fluid in the bottom chamber was transferred to a well of 96-well plate; b) The plate was centrifuged at 1200 rpm for 5 minutes; c) 180 μL of supernatant was removed; d) The cell pellet was resuspended with the remaining 20 μL fluid and the cells counted using a hemocytometer. […] This compares favorably to the Å6 peptide which is effective between 5 μM and 100 nM.

[3] = target: T2, CD44 on SKOV3 cells (Homo sapiens, UniProt P16070); assay: FACs analysis of anti-CD44 (DF1485) binding to SKOV3 cells in the presence of Å6; format: cell-based; conditions: pre-incubation with Å6 on ice 10 or 30 min, FACS MnI
T2 construct: endogenous in cells; host or cells: SKOV3
T2 sequence (P16070 21-742): as above
Experimental: In FIG. 4 SKOV3 cells were detached from their culture flasks by brief trypsinization, washed twice with DPBS and incubated on ice with the indicated concentrations of Å6 for 10 min (exp. 1) or 30 min (exp. 2). Anti-CD44 (DF1485; Santa Cruz Biotech.) or its isotype control were then added to final concentrations of 1 μg/ml (exp. 1) or 1 and 0.5 μg/ml (exp. 2) and the cells incubated for 1 hr on ice. The cells were washed once and incubated with FITC-conjugated donkey anti-mouse IgG (H+L) for 30 minutes on ice and then subjected to FACS analysis with a Beckman Coulter Epics XL-MCL cytofluorimeter. Data analysis was performed using the Coulter Epics software. Note: Data are presented as mean fluorescence intensities (MnI) obtained with the MnI of the negative control in each experiment adjusted to <0.5 during data collection. […] Similar CD44 expression in ovarian cancer lines using different anti-CD44 antibodies is assessed in FIG. 5, for which the MnI values are summarized in FIG. 6.

[4] = target: T1, CD44; assay: Immunoprecipitation of Å6Cbio-crosslinked SKOV3 polypeptides with anti-CD44, HRP-SA blotting; format: binding; conditions: SKOV3 cells, 100 μM Å6Cbiotin, BS3 crosslinking, anti-CD44 DF1485
Experimental: In FIGS. 1 and 2 SKOV3 cells were incubated with or without 100 μM Å6Cbiotin (Å6CbioXL and ConXL, respectively) for 30 min at 4° C. The cells were then crosslinked with 5 mM bis(sulfosuccinimidyl) suberate (Sulfo-DSS or BS^3) for 30 min at 4° C. and Triton X-100 lysates generated. The lysates were pre-cleared by incubating with Protein A-agarose for 2 hr at room temperature. Aliquots representing 100 μg of the cleared lysates were then incubated overnight at room temperature with 20 μL of Protein A-agarose plus 2 μg of anti-Tenascin R (TnR; E-18, Santa Cruz Biotech.), anti-Tenascin C (TnC; 300-3, Santa Cruz Biotech.), anti-CD44 (DF1485, Santa Cruz Biotech.), anti-Plexin-A1 (P1 A1; H-60, Santa Cruz Biotech.) or murine IgG1 (Sigma Chem. Co.). After washing 5 times with lysis buffer, the immunoprecipitated polypeptides were eluted from the Protein A-agarose by boiling in SDS-PAGE sample buffer. The eluted material and 2 μg aliquots of the starting material were then subjected to SDS-PAGE, transfer to PVDF membranes and blotting with chemiluminescent horseradish peroxidase (HRP)-conjugated streptavidin (HRP-SA).
In FIG. 3 SKOV3 cells were incubated with or without 100 μM Å6Cbiotin (Å6CbioXL and control, respectively) for 30 minutes at 4° C. The cells were then crosslinked with 5 mM BS3 for 30 min at 4° C. […]

[5] = target: T2, CD44 on SKOV3 cells; assay: FACs analysis of IM7 binding to SKOV3 cells in the presence of Å6; format: cell-based; conditions: IM7 1 μg/ml, 4° C.
Experimental: In FIGS. 14a and 14b SKOV3 cells were incubated with the indicated concentrations of Å6 for 30 min at 4° C. IM7 (1 μg/ml) was then added and allowed to bind for 30 min at 4° C., after which the cells were washed and incubated with FITC-donkey anti-rat IgG for 30 min at 4° C. The cells were washed once and then subjected to FACs analysis.

[6] = test system: A2780 cells; assay: Boyden chamber chemotaxis of A2780 cells; format: cell-based; conditions: 10 ng/ml VEGF in NIH3T3-conditioned media, overnight
Experimental: as §1

[7] = test system: B16 melanoma cells; assay: B16 melanoma lung metastasis model; format: in vivo, C57BL/6J mice; conditions: about 1×10^5 melanoma cells injected in the tail vein
Experimental: The B16 melanoma metastasis is well known in the art. A typical protocol for assessing the inhibitory effect of a compound on metastasis is described below. Such a protocol was followed to assess the effect of Å6 on metastasis.
Briefly, B16 melanoma cells can be cultured in RPMI-1640 with 10% fetal bovine serum at 37° C. in an atmosphere of 95% air and 5% CO2. C57BL/6J mice of six to eight weeks can be purchased from commercial suppliers. For the lung metastasis model, about 1×10^5 melanoma cells suspended in 100 μl saline were injected in the tail vein in the presence or absence of Å6. Administration of the Å6 peptide inhibited the lung metastasis by 50% or more.

[8] = target: T1, CD44; assay: Dimerization of CD44 in SKOV3 cells, anti-CD44 B-F24 immunoblot; format: cell-based; conditions: SKOV3 cultured 20 hr with 1 or 10 μM Å6, non-reducing
Experimental: In FIG. 13 SKOV3 cells were cultured for 20 hr with no additions, 1 or 10 μM Å6 or 100 ng/ml PMA. Triton X-100 lysates were generated and further solubilized in SDS-PAGE sample buffer under non-reducing conditions. Aliquots representing 7.5 μg of cellular protein were subjected to SDS-PAGE followed by immunoblot analysis with the anti-CD44 murine monoclonal B-F24. The presence of stained higher molecular weight bands can be indicative of CD44 dimers and/or oligomers.

[9] = test system: A2780 cells; assay: Adhesion of A2780 cells to hyaluronic acid; format: cell-based; conditions: immobilized HA; 1 or 10 μM Å6
Experimental: In FIG. 12 A2780 cells were cultured overnight with or without 10 μM Å6 or 100 ng/ml PMA. The cells were then detached, washed and loaded with 20 μg/ml CFDA-SE for 30 min at 37° C. After washing, the cells were resuspended in PBS containing 10% FCS and triplicate aliquots representing 100,000 cells incubated for 30 min at room temperature with no additions, 1 or 10 μM Å6 or with 20 ng/ml IM7, a blocking anti-CD44 rat monoclonal antibody. The cells were then placed into microtiter wells that had been coated with 50 ul of 1 mg/ml HA overnight and blocked for 30 min with 10% FCS. The cells were allowed to adhere at room temperature for 30 min after which, the wells were decanted and washed 3 times. The fluorescence in each well was assessed (excit./emiss.: 460/536 nm) and the mean fluorescence values (+/standard deviation) of the triplicate determinations calculated.

[10] = test system: SKOV3 cells; assay: Adhesion of SKOV3 cells to hyaluronic acid; format: cell-based
Experimental: In FIG. 11 SKOV3 cells were cultured overnight with or without 10 μM Å6 or 100 ng/ml PMA. The cells were then detached, washed and loaded with 20 μg/ml CFDA-SE for 30 min at 37° C. After washing, the cells were resuspended in PBS containing 10% FCS and triplicate aliquots representing 100,000 cells incubated for 30 min at room temperature with no additions, 1 or 10 uM Å6 or with 20 ng/ml IM7, a blocking anti-CD44 rat monoclonal antibody. The cells were then placed into microtiter wells that had been coated with 50 μl, of 1 mg/mL HA overnight and blocked for 30 min with 10% FCS. The cells were allowed to adhere at room temperature for 30 minutes after which, the wells were decanted and washed 3 times. The fluorescence in each well was assessed (excit./emiss.: 460/536 nm) and the mean fluorescence values (+/standard deviation) of the triplicate determinations calculated. […] The control experiment with IM7 (graphs on far right) indicates inhibition of SKOV3 binding to HA in the presence of this anti-CD44, which indicates a role for CD44 in binding HA.

Å6CbioXL: SKOV3 cells incubated with 100 μM Å6Cbiotin and crosslinked with BS3; lysate polypeptides labeled with Å6Cbio (KPSSPPEE; also: biotin label (Cbio) at an unstated position, BS3 crosslinked to cell polypeptides)
Effect on binding of anti-CD44 to CD44 (band intensity) [1]: reduces the binding of anti-CD44 to CD44

Ac-KPSSPPEE-Am (Ac-KPSSPPEE-NH2) [Å6]
Effect on migration of SKOV3 cells ([2]; 10 ng/ml VEGF in NIH3T3-conditioned media, overnight): strong inhibition
Effective concentration for cell migration inhibition, lower end [2]: 100 nM
Effective concentration for cell migration inhibition, upper end [2]: 5 µM
Effect on binding of DF1485 anti-CD44 to SKOV3 cells [3]: inhibits the binding of DF1485 anti-CD44 to SKOV3 cells
Target identified by immunoprecipitation of crosslinked biotinylated peptide [4]: targets CD44; also recorded: CD44 as the target
Effect on IM7 antibody binding to SKOV3 cells [5]: increase in antibody binding with increasing concentration
Effect on migration of A2780 cells [6]: essentially unaffected
Inhibition of lung metastasis [7]: ≥ 50%
Formation of higher molecular weight CD44 bands (dimers/oligomers) [8]: higher molecular weight bands are formed
Effect on A2780 binding to HA [9]: does not substantially modulate
Effect of a 10-fold increase in peptide concentration on SKOV3 binding to HA ([10]; 1 vs 10 μM Å6): little effect
Effect on SKOV3 binding to HA ([10]; immobilized HA, 1 or 10 μM Å6, 20 ng/ml IM7): enhanced

NASAPPEE
Effective concentration for cell migration inhibition, lower end [2]: 1 nM
Effective concentration for cell migration inhibition, upper end [2]: 100 µM
